This is an account of results in ChEMBL document CHEMBL1152364, “Dipeptidyl nitrile inhibitors of Cathepsin L” (Bioorg Med Chem Lett, 2009).

Assay [1] has as its target Cathepsin B (Homo sapiens, UniProt P07858). The assay can be described thus: Inhibition of cathepsin B.
The target in assay [2] is Procathepsin L (Homo sapiens, UniProt P07711). The assay can be described thus: Inhibition of cathepsin L.
For assay [3], the target named is T1, Cathepsin K (Homo sapiens, UniProt P43235).
T1 sequence (P43235 whole entry): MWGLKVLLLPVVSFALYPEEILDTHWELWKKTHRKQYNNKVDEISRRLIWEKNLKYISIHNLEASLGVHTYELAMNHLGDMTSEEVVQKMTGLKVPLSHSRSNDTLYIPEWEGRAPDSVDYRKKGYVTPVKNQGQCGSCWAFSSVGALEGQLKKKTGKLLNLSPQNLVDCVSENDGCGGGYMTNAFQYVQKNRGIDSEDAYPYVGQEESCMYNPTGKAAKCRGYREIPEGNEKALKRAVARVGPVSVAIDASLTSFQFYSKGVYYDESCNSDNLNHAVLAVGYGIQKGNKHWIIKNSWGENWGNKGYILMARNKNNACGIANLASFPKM
Briefly: Inhibition of cathepsin K.

Assay [4] deals with T2, Cathepsin L2 (Homo sapiens, UniProt O60911).
T2 sequence (O60911 whole entry): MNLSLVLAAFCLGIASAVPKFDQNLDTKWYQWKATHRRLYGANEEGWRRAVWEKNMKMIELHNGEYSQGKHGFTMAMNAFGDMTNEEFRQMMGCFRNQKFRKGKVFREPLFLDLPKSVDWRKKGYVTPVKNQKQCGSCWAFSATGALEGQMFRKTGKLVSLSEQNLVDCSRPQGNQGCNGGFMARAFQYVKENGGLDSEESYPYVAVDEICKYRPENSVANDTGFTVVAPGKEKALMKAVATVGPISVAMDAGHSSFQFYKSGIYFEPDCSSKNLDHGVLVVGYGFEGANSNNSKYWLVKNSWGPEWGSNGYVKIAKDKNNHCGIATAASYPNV
Briefly: Inhibition of cathepsin L2.

Assay [5] concerns the target Cathepsin S (Homo sapiens, UniProt P25774). The assay can be described thus: Inhibition of cathepsin S.

Cathepsin S, sequence (P25774 whole entry): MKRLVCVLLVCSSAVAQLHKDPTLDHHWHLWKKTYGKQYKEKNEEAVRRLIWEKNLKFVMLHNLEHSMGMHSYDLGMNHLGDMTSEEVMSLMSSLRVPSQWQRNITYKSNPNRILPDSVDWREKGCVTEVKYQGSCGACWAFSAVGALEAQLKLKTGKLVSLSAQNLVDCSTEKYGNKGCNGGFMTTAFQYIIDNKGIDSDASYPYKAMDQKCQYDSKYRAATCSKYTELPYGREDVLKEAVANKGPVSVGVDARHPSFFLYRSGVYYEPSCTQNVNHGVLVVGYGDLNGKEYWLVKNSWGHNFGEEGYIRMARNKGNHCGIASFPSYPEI
Procathepsin L, sequence (P07711 whole entry): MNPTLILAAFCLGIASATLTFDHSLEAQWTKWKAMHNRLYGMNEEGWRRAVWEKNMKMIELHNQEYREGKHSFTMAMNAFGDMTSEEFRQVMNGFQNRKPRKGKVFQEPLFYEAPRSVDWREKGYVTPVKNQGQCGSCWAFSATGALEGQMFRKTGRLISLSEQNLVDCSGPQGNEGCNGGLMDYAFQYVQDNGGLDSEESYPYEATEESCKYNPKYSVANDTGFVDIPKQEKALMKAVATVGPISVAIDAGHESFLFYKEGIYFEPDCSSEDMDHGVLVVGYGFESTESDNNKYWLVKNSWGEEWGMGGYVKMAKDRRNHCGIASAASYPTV

`Cc1cccc(C(=O)N[C@@H](Cc2cccc(Cl)c2)C(=O)NCC#N)c1`: the IC50 – broadly, the concentration at which inhibition is half-maximal – in assay [1] is 5010 nM; in assay [2], 251 nM; in assay [3], 6310 nM; in assay [4] it was 794 nM; in assay [5], 398 nM.
The like results for `N#CCNC(=O)[C@H](Cc1cccc(Cl)c1)NC(=O)c1cccc2c1CCCC2` were, in that order, above 10000 nM, 398 nM, above 10000 nM, above 10000 nM and above 10000 nM.
With `N#CCNC(=O)[C@H](Cc1cccc(Cl)c1)NC(=O)C1CCCCC1`, the IC50 in assay [1] is above 10000 nM; in assay [2], 1260 nM; in assay [3], above 10000 nM; in assay [4] it was 6310 nM; in assay [5], 2510 nM.
For `Cc1cc(C)cc(C(=O)N[C@@H](Cc2cccc(Cl)c2)C(=O)NCC#N)c1`, the IC50 in assay [1] was 7940 nM; in assay [2], 50.1 nM; in assay [3], above 10000 nM; in assay [4] it was 200 nM; in assay [5] it was 316 nM.
For `Cc1nc(C(=O)N[C@@H](Cc2cccc(Cl)c2)C(=O)NCC#N)c(C)o1` the same measures were above 10000 nM, 631 nM, 10000 nM, 2510 nM and 794 nM.
For `N#CCNC(=O)[C@H](Cc1cccc(Cl)c1)NC(=O)C1CCCCCC1`, the IC50 was above 10000 nM in assay [1]; 316 nM in assay [2]; 5010 nM in assay [3]; 6310 nM in assay [4]; 2510 nM in assay [5].
For `Cc1ccc(C)c(C(=O)N[C@@H](Cc2cccc(Cl)c2)C(=O)NCC#N)c1` the same measures were 5010 nM, 79.4 nM, 6310 nM, 1580 nM and 1260 nM.
As to `CC(C)c1cc(C(=O)N[C@@H](Cc2cccc(Cl)c2)C(=O)NCC#N)n(C)n1`, the IC50 in assay [1] is 5010 nM; in assay [2], 79.4 nM; in assay [3] it was 2000 nM; in assay [4], 501 nM; in assay [5], 794 nM.
With `N#CCNC(=O)[C@H](Cc1cccc(Cl)c1)NC(=O)c1cccc2ccccc12`, the IC50 in assay [1] was 10000 nM; in assay [2] it was 251 nM; in assay [3], above 10000 nM; in assay [4], 3980 nM; in assay [5] it was 3160 nM.
For `N#CCNC(=O)[C@H](Cc1cccc(Cl)c1)NC(=O)C1=CCCCC1` the same measures were above 10000 nM, 501 nM, above 10000 nM, 398 nM and 2000 nM.
The like results for `Cc1cccc(C(=O)N[C@@H](Cc2cccc(Cl)c2)C(=O)NCC#N)c1C` were, in that order, above 10000 nM, 316 nM, above 10000 nM, 3980 nM and 2000 nM.
As for `N#CCNC(=O)[C@H](Cc1cccc(Cl)c1)NC(=O)c1cccc(Cl)c1`, the IC50 in assay [1] is 3980 nM; in assay [2] it was 79.4 nM; in assay [3], 6310 nM; in assay [4], 200 nM; in assay [5], 200 nM.
Regarding `Cc1ccc(C(=O)N[C@@H](Cc2cccc(Cl)c2)C(=O)NCC#N)cc1`, the IC50 in assay [1] is 2510 nM; in assay [2] it was 251 nM; in assay [3], 1260 nM; in assay [4], 1000 nM; in assay [5] it was 631 nM.
Take `Cc1ccccc1C(=O)N[C@@H](Cc1cccc(Cl)c1)C(=O)NCC#N`: the 50% inhibitory concentration (IC50) is above 10000 nM in assay [1]; 794 nM in assay [2]; 5010 nM in assay [3]; 5010 nM in assay [4]; 1580 nM in assay [5].
With `Cc1nn(C)cc1C(=O)N[C@@H](Cc1cccc(Cl)c1)C(=O)NCC#N`, the IC50 in assay [1] was above 10000 nM; in assay [2], 1260 nM; in assay [3], 2510 nM; in assay [4], 1260 nM; in assay [5] it was 1260 nM.
For `Cc1cc(C(=O)N[C@@H](Cc2cccc(Cl)c2)C(=O)NCC#N)c(C)s1`, the concentration for half-maximal inhibition (IC50) in assay [1] was 2000 nM; in assay [2], 79.4 nM; in assay [3] it was 5010 nM; in assay [4], 501 nM; in assay [5], 794 nM.
Turning to `Cc1cc(C(=O)N[C@@H](Cc2cccc(Cl)c2)C(=O)NCC#N)n(C)n1`, the half-maximal inhibitory concentration (IC50) in assay [1] is above 10000 nM; in assay [2] it was 501 nM; in assay [3] it was 6310 nM; in assay [4], 1260 nM; in assay [5], 794 nM.
For `CCc1cc(C(=O)N[C@@H](Cc2cccc(Cl)c2)C(=O)NCC#N)n(C)n1` the same measures were 7940 nM, 63.1 nM, 5010 nM, 501 nM and 794 nM.
The like results for `Cc1nc(C)c(C(=O)N[C@@H](Cc2cccc(Cl)c2)C(=O)NCC#N)s1` were, in that order, 10000 nM, 398 nM, 1260 nM, 251 nM and 200 nM.
Consider `N#CCNC(=O)[C@H](Cc1cccc(Cl)c1)NC(=O)c1ccnc2ccccc12`, for which the IC50 was above 10000 nM in assay [1]; 100 nM in assay [2]; above 10000 nM in assay [3]; 3160 nM in assay [4]; 3160 nM in assay [5].
`Cc1cc(C(=O)N[C@@H](Cc2cccc(Cl)c2)C(=O)NCC#N)c2cc(C)ccc2c1`: the IC50 is above 10000 nM in assay [1]; 20 nM in assay [2]; above 10000 nM in assay [3]; 1000 nM in assay [4]; 1000 nM in assay [5].
